Key:
AuroraA-TPX2 = target: T1, AuroraA-TPX2 (Homo sapiens, UniProt O14965); experiment: AuroraA-TPX2 Homogeneous Time Resolved Fluorescent (HTRF) kinase assay; assay type: biochemical; conditions: average; read-out: AurA_IC50_IP (uM Avg)
T1 construct: 20 μL of AuroraA-TPX2 KD GST for a final volume of about 41 μL; GST
T1 sequence (O14965 133-383 limits assumed): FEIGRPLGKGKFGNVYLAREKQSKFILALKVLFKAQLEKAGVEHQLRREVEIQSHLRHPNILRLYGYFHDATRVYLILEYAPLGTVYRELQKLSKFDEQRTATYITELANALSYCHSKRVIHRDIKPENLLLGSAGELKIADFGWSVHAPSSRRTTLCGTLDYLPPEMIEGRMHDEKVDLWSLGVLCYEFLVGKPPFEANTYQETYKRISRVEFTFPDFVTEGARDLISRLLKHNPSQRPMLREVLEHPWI
T1 sequence (Q9ULW0 1-43 partner limits assumed): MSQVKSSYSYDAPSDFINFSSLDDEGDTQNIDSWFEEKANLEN
Method in brief: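 HTRF read-out (Eu 615 nm to APC 655 nm) of phosphorylated biotin-PLK, detected with 0.02 nM europium anti-phosphoPLK antibody and 0.0005 mg/mL SA-APC after overnight equilibration.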

AuroraB = target: T2, AuroraB (Homo sapiens, UniProt Q96GD4); experiment: AuroraB Homogeneous Time Resolved Fluorescent (HTRF) kinase assay; assay type: biochemical; conditions: average; read-out: AurB_IC50_IP (uM Avg)
T2 construct: 20 μL of AuroraB FL H is for a final volume of 41 μL; His
T2 sequence (Q96GD4 whole entry): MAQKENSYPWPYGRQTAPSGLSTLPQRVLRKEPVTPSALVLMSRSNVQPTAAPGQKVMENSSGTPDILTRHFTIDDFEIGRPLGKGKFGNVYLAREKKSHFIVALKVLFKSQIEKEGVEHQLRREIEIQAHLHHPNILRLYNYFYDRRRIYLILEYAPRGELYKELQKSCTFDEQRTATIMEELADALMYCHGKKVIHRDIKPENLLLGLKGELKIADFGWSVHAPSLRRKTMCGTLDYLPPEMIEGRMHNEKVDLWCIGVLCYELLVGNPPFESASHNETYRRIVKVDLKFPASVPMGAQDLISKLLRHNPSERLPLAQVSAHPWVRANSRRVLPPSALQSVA
Method in brief: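 Full-length His-tagged kinase phosphorylates biotinylated Histone H3 (0.1 μM final) with ATP in pH 7.5 HEPES containing MgCl, MnCl, DTT and BSA for about 90 min. EDTA-containing detection mix with SA-APC and Eu-anti-phosphoHistone H3 then equilibrated about 60 min; HTRF read with 320 nm excitation, emissions 615/655 nm.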

Row | SMILES | IC50 (AuroraA-TPX2) [µM] | IC50 (AuroraB) [µM]
1 | COCCOCCn1c(=O)ccc2nccc(Sc3ccc(Nc4nnc(-c5ccc(Cl)cc5)c5ccccc45)cc3)c21 [compound 476] | 0.746 | 0.293
2 | COc1cnc2c(Sc3ccc(Nc4nnc(-c5ccc(C)c(N)c5)c5ccccc45)cc3)ccnc2c1 [compound 477] | 0.009 | 0.026
3 | Cc1ccc(-c2nnc(Nc3ccc(Sc4ccnc5ccoc45)cc3)c3ccccc23)cc1N [compound 479] | > 125 | > 125
4 | Cc1ccc(-c2nnc(Nc3ccc(Oc4ccnc5ccoc45)cc3)c3ccccc23)cc1N [compound 480] | 0.162 | 0.013
5 | Cc1ccc(-c2nnc(Nc3ccc(Sc4ccnc5ccoc45)cc3)c3ccccc23)nc1 [compound 482] | 0.415 | 0.004
6 | Clc1ccc(-c2nnc(Nc3ccc(Oc4ccnc5ccoc45)cc3)c3ccccc23)cc1 [compound 483] | 0.583 | 0.013
7 | C[Si](C)(C)c1cc2nccc(Sc3ccc(Nc4nnc(Cl)c5ccccc45)cc3)c2o1 [compound 484] | > 125 | 0.107
8 | COc1ccc(-c2nnc(Nc3ccc(Sc4ccnc5ccoc45)cc3)c3ccccc23)cn1 [compound 485] | 0.479 | 0.005
9 | Clc1ccc(-c2nnc(Nc3ccc(Sc4ccnc5cc(C6CC6)oc45)cc3)c3ccccc23)cc1 [compound 486] | 0.141 | 0.018
10 | Cc1cccc(-c2nnc(Nc3ccc(Sc4ccnc5ccoc45)cc3)c3ccccc23)n1 [compound 488] | 1.29 | 0.015
11 | Cc1ccc(-c2nnc(Nc3ccc(Sc4ccnc5cc(C#N)oc45)cc3)c3ccccc23)cc1N [compound 490] | 0.09 | 0.013
12 | Cc1cc2nccc(Sc3ccc(Nc4nnc(-c5ccc(Cl)cc5)c5ccccc45)cc3)c2o1 [compound 491] | 0.15 | 0.039
13 | Cc1cc2nccc(Sc3ccc(Nc4nnc(-c5ccc(C)c(N)c5)c5ccccc45)cc3)c2o1 [compound 492] | 0.142 | 0.046
14 | FC(F)(F)Oc1ccc2c(Sc3ccc(Nc4nnc(-c5ccccc5)c5ccccc45)cc3)ccnc2c1 [compound 497] | > 25 | 0.333
15 | FC(F)(F)Oc1ccc2c(Oc3ccc(Nc4nnc(-c5ccc(Cl)cc5)c5ccccc45)cc3)ccnc2c1 [compound 498] | 0.183 | 0.165
16 | Cc1csc(-c2nnc(Nc3ccc(Sc4ccnc5cc(OC(F)(F)F)ccc45)cc3)c3ccccc23)c1 [compound 499] | 0.277 | 0.363
17 | COc1cnc2c(Sc3ccc(Nc4nnc(-c5ccc6occc6c5)c5ccccc45)cc3)ccnc2c1 [compound 501] | 0.029 | 0.058

Now from value to molecule:

Row | IC50 (AuroraA-TPX2) [µM] | IC50 (AuroraB) [µM] | SMILES
18 | 2.03 | 0.074 | COC1CCN(c2nnc(Nc3ccc(Oc4ccnc5ccoc45)cc3)c3ccccc23)CC1 [compound 478]
19 | 0.341 | 0.002 | Cc1ccc(-c2nnc(Nc3ccc(Sc4ccnc5ccoc45)cc3)c3ccccc23)cn1 [compound 481]
20 | 0.09 | 0.019 | N#Cc1cc2nccc(Sc3ccc(Nc4nnc(-c5ccc(Cl)cc5)c5ccccc45)cc3)c2o1 [compound 489]
21 | 0.02 | 0.002 | Clc1ccc(-c2nnc(Nc3ccc(Sc4ccnc5cccnc45)cc3)c3ccccc23)nc1 [compound 493]
22 | 0.026 | 0.017 | COc1cc2nccc(Sc3ccc(Nc4nnc(-c5cc(C)cs5)c5ccccc45)cc3)c2cn1 [compound 494]
23 | 0.15 | 0.026 | COc1cnc2c(Sc3ccc(Nc4nnc(-c5ccccc5F)c5ccccc45)cc3)ccnc2c1 [compound 495]
24 | 1.04 | 0.374 | FC(F)(F)Oc1ccc2c(Oc3ccc(Nc4nnc(-c5ccccc5)c5ccccc45)cc3)ccnc2c1 [compound 496]
25 | > 25 | 4.17 | CN(c1ccc(Oc2ccnc3ccc(=O)[nH]c23)cc1)c1nnc(-c2ccc(Cl)cc2)c2ccccc12 [compound 500]
